The source of these data is patent US5891882A, “Benzopyranopyrrole and benzopyranopyridine α-1 adenergic compounds” (priority 1997, dated 1999).

Structures can show the parent of a compound that is named as a salt.

Series [1] has as its target T1, α-1B adrenoreceptor (rat spleen) (Rattus norvegicus, UniProt P15823).
T1 construct: from tissue; host or cells: rat spleen
T1 sequence (P15823 1-515): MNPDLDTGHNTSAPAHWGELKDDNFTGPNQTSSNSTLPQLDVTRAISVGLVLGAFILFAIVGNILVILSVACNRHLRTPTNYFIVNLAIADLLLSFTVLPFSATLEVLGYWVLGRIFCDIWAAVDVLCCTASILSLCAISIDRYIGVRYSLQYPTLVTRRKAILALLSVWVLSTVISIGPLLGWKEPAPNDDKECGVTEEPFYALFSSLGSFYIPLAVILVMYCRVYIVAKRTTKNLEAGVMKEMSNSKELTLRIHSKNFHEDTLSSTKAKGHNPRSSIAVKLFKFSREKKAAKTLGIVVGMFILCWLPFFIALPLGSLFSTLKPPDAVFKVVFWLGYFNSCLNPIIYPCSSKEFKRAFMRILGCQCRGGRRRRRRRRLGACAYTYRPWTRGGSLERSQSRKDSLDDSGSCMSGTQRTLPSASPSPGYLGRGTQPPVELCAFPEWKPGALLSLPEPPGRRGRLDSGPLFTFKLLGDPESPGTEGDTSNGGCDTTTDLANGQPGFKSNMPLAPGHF
Nature of the series: Functional antagonism: inhibition of phenylephrine-induced contraction of rat spleen. The series is classed as cell-based. Conditions: rat spleen, phenylephrine-induced contraction, Schild plot. The text has this: (§1) Functional assays indicative of pharmacologically defined α-1 adrenoreceptors were used to further characterize compounds. Inhibition of phenylephrine (PE)-induced contraction of canine prostate smooth muscle can be correlated with α-1A adrenoreceptor activation. […] For each of these models, agonist dose response curves were repeated against increasing concentrations of test agent to derive a Schild plot [log ([…]) against log (molarity of test agent)] to determine the pA2.

Series [2] addresses T2, α-1 Adrenoceptors (Rat Aorta) (Rattus norvegicus, UniProt P23944).
T2 construct: Rat Aorta; from tissue; host or cells: rat aorta
T2 sequence (P23944 1-561): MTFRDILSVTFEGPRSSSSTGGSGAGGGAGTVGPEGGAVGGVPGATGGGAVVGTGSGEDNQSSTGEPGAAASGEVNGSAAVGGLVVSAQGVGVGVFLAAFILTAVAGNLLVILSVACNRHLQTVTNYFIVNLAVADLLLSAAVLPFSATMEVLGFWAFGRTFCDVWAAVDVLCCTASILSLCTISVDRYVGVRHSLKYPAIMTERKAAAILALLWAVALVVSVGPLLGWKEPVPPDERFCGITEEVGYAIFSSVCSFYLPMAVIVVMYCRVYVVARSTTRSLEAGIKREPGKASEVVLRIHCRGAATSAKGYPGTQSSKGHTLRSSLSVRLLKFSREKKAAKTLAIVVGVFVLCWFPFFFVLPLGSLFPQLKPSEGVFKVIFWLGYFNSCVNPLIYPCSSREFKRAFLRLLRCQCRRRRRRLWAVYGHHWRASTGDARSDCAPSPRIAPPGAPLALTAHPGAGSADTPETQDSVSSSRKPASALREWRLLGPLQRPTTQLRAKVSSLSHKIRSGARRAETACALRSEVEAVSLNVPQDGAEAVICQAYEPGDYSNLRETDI
Nature of the series: Functional antagonism at α-1 adrenoceptors, rat aorta. The series is classed as cell-based. The conditions noted are these: read-out: In Vitro Characterization (pA2) Rat Aorta (converted).
Text: as §1

The subject of another series is α-1 adrenoreceptor. Conditions: cited from earlier work.
For series [3], the target named is T3, α-1A adrenoreceptor (canine prostate smooth muscle) (Canis lupus, UniProt A0A8I3NK63).
T3 construct: antagonism of phenylephrine-induced contraction (pA2, Schild)
T3 sequence (A0A8I3NK63 1-466): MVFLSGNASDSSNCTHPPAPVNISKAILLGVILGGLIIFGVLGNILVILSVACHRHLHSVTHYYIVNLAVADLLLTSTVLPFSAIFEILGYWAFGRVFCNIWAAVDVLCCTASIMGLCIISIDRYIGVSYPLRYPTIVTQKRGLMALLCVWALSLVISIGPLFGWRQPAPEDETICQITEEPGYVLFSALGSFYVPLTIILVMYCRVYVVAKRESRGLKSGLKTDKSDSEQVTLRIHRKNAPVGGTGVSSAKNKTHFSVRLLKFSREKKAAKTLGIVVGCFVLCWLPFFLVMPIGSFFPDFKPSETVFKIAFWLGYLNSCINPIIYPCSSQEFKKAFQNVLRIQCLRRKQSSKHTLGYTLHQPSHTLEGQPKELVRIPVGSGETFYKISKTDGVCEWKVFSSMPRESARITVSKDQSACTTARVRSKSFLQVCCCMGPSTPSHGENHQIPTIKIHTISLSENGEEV
Nature of the series: Functional antagonism: inhibition of phenylephrine-induced contraction of canine prostate strips. The conditions noted are these: Schild plot. The series is classed as cell-based.
Text: Canine prostate strips were used in vitro as previously described (Hieble, J. P., Boyce, Caine, M., Fed Proc., 45: 2609-2614 (1986)), to determine antagonist potencies phenylephrine-induced contractions.
as §1
Canine prostate strips were used in vitro as previously described (Hieble, J. P., Boyce, A. J. and Caine, M., Fed. Proc., 45: 2609-2614 (1986)), to determine antagonist potencies against phenylephrine-induced contractions.

In the case of `COc1cccc2c1[C@@H]1CN(CCCCn3c(=O)[nH]c4c(sc5ncccc54)c3=O)C[C@@H]1CO2` [Example 34, hydrochloride], the “In Vitro Characterization (pA2) Rat Spleen” value in series [1] is recorded as 8.12. Besides, in series [2], the Kb was 0.646 nM.
The matching figures for `COc1ccc2c(n1)sc1c(=O)n(CCCCN3C[C@H]4COc5cccc(OC)c5[C@@H]4C3)c(=O)[nH]c12` [Example 46, 3-[4-((3aS,9bR)-trans-9-Methoxy-1,2,3,3a,4,9b-hexahydro-[1]-benzopyrano[3,4-c]pyrrol-2-yl)butyl]-7-methoxy-pyrido[3',2':4,5]thieno[3,2-d]pyrimidine-2,4(1H,3H)-dione hydrochloride]: 8.12 and 0.155 nM.
Consider `O=C(NC1CCN(CCc2c[nH]c3ccccc23)CC1)c1ccccc1` [indoramin], for which the “dose limiting side effects” value in the series with α-1 adrenoreceptor (BPH treatment) is “hypotension, dizziness, and muscle fatigue”. The “urinary flow rates and subjective symptom scores” value in the series on α-1 adrenoreceptor (longer term studies, BPH) is “significant improvements in urinary flow rates and subjective symptom scores”.
For the molecule `COc1cccc2c1[C@@H]1CN(CCCCn3c(=O)[nH]c4c(sc5ncc(Cl)nc54)c3=O)C[C@H]1CO2` [Example 13, 3-[4((3aS,9bR)-trans-9-Methoxy-1,2,3,3a,4,9b-hexahydro-[1]-benzopyrano[3,4-c]pyrrol-2-yl)butyl]-8-chloro-pyrazino[2',3':4,5]thieno[3,2-d]pyrimidine-2,4(1H,3H)-dione hydrochloride], in series [3], the “In Vitro Characterization (pA2) Dog Prostate” value is 9.91. Moreover, the Kb in series [2] was 0.0407 nM.
For `COc1cccc2c1[C@@H]1CN(CCCCn3c(=O)[nH]c4c(sc5ncc(-c6ccccc6)nc54)c3=O)C[C@@H]1CO2` [Example 39, 3-[4-((3aR,9bR)-cis-9-Methoxy-1,2,33a,4,9b-hexahydro-[1]-benzopyrano[3,4-c]pyrrol-2-yl)butyl]-8-phenyl-pyrazino[2',3':4,5]thieno[3,2-d]pyrimidine-2,4(1H,3H)-dione hydrochloride], the “In Vitro Characterization (pA2) Rat Spleen” value in series [1] was 6.83. In addition, the “In Vitro Characterization (pA2) Dog Prostate” value in series [3] is recorded as 8.52. In series [2], the Kb is 12.9 nM.
`COc1ccc2sc3c(=O)n(CCCCN4C[C@H]5COc6cccc(OC)c6[C@@H]5C4)c(=O)[nH]c3c2n1` [Example 26, 3-[4-((3aS,9bR)-trans-9-Methoxy-1,2,3,3a,4,9b-hexahydro-[1]-benzopyrano[3,4-c]pyrrol-2-yl)butyl]-8-methoxy-pyrido[2',3':4,5]thieno[3,2-d]pyrimidine-2,4(1H,3H)-dione dihydrochloride]: the “In Vitro Characterization (pA2) Dog Prostate” value in series [3] is given as 9.15. The Kb in series [2] was 0.0661 nM.
As for `COc1cccc2c1[C@@H]1CN(CCCCn3c(=O)[nH]c4c(sc5cccnc54)c3=O)C[C@@H]1CO2` [Example 1, 3-[4-((3aR,9bR)-cis-9-Methoxy-1,2,3,3a,4,9b-hexahydro-[1]-benzopyrano[3,4-c]pyrrol-2-yl)butyl]-pyrido[2',3':4,5]thieno[3,2-d]pyrimidine-2,4(1H,3H)-dione hydrochloride], the “In Vitro Characterization (pA2) Dog Prostate” value in series [3] is listed as 8.69.
In the case of `COc1cccc2c1[C@@H]1CN(CCCCn3c(=O)[nH]c4c(sc5ncc(-c6ccccc6)nc54)c3=O)C[C@H]1CO2` [Example 50, 3-[4-((3aS,9bR)-trans-9-Methoxy-1,2,3,3a,4,9b-hexahydro-[1]-benzopyrano[3,4-c]pyrrol-2-yl)butyl]-8-phenyl-pyrazino[2',3':4,5]thieno[3,2-d]pyrimidine-2,4(1H,3H)-dione hydrochloride], the “In Vitro Characterization (pA2) Rat Spleen” value in series [1] was 6.5. Moreover, the “In Vitro Characterization (pA2) Dog Prostate” value in series [3] came to 8.45. The Kb in series [2] was 0.389 nM.
Regarding `COc1cc2[nH]c(=O)n(CCCCN3C[C@@H]4COc5ccccc5[C@@H]4C3)c(=O)c2cc1OC.Cl` (racemic) [Example 81, 3-[4-((±)-cis-1,2,3,3a,4,9b-hexahydro-[1]-benzopyrano[3,4-c]pyrrol-2-yl)butyl]-6,7-dimethoxy-quinazoline-2,4(1H,3H)-dione hydrochloride], in series [1], the “In Vitro Characterization (pA2) Rat Spleen” value is given as 7.41.
For the molecule `COc1cccc2c1[C@@H]1CN(CCCCn3c(=O)[nH]c4c(sc5nc(Cl)ccc54)c3=O)C[C@H]1CO2` [Example 47, 3-[4-((3aS,9bR)-trans-9-Methoxy-1,2,3,3a,4,9b-hexahydro-[1]-benzopyrano[3,4-c]pyrrol-2-yl)butyl]-7-chloro-pyrido[3',2':4,5]thieno[3,2-d]pyrimidine-2,4(1H,3H)-dione hydrochloride], the “In Vitro Characterization (pA2) Rat Spleen” value in series [1] worked out at 7.95. For the same molecule, the Kb in series [2] is 0.204 nM.
For `COc1cccc2c1[C@@H]1CCN(CCCCn3c(=O)[nH]c4c(sc5ncccc54)c3=O)C[C@H]1CO2` (relative stereo) [Example 85, 3-[4-((±)-trans-10-Methoxy-1,3,4,4a,5,10b-hexahydro-2H-[1]-benzopyrano[3,4-c]pyrido-3-yl)butyl]-pyrido[3',2':4,5]thieno[3,2-d]pyrimidine-2,4(1H,3H)-dione dihydrochloride], the “In Vitro Characterization (pA2) Dog Prostate” value in series [3] is recorded as 8.6.
For the molecule `COc1cccc2c1[C@@H]1CN(CCCCn3c(=O)[nH]c4c(sc5c(Cl)nccc54)c3=O)C[C@H]1CO2` [Example 54], the “In Vitro Characterization (pA2) Rat Spleen” value in series [1] was 7.31.
`COc1cccc2c1[C@@H]1CN(CCCCn3c(=O)[nH]c4c(sc5ncccc54)c3=O)C[C@H]1CO2` [Example 44, 3-[4-((3aS,9bR)-trans-9-Methoxy-1,2,3,3a,4,9b-hexahydro-[1]-benzopyrano[3,4-c]pyrrol-2-yl)butyl]-pyrido[3',2':4,5]thieno[3,2-d]pyrimidine-2,4(1H,3H)-dione hydrochloride]: in series [1], the “In Vitro Characterization (pA2) Rat Spleen” value is recorded as 8.35. Moreover, the Kb in series [2] was 0.0398 nM.
Consider `COc1cccc2c1OC[C@H]1CN(CCn3c(=O)[nH]c4c(sc5ccccc54)c3=O)C[C@@H]21.Cl` (racemic) [Example 67, 3-[2-((±)-cis-6-Methoxy-1,2,3,3a,4,9b-hexahydro-[1]-benzopyrano[3,4-c]pyrrol-2-yl)ethyl]-[1]-benzthieno[3,2-d]pyrimidine-2,4(1H,3H)-dione hydrochloride], for which the “In Vitro Characterization (pA2) Rat Spleen” value in series [1] is listed as 6.83. Moreover, in series [3], the “In Vitro Characterization (pA2) Dog Prostate” value came out at 7.33.
`Cl.O=c1[nH]c2c(sc3ccccc32)c(=O)n1CCN1C[C@@H]2COc3ccccc3[C@@H]2C1` (racemic) [Example 69, 3-[2-((±)-cis-1,2,3,3a,4,9b-hexahydro-[1]-benzopyrano[3,4-c]pyrrol-2-yl)ethyl]-[1]-benzthieno[3,2-d]pyrimidine-2,4(1H,3H)-dione hydrochloride]: the “In Vitro Characterization (pA2) Dog Prostate” value in series [3] is on record as 6.91.
Same read-out and setting: in the case of `COc1cccc2c1[C@@H]1CN(CCCCn3c(=O)[nH]c4c(sc5cccnc54)c3=O)C[C@H]1CO2` [Example 3, 3-[4-((3aS,9bR)-trans-9-Methoxy-1,2,3,3a,4,9b-hexahydro-[1]-benzopyrano[3,4-c]pyrrol-2-yl)butyl]-pyrido[2',3':4,5]thieno[3,2-d]pyrimidine-2,4(1H,3H)-dione hydrochloride] it was 9.43.
